Each structure is given as a SMILES string. Read-outs that look alike come from different tables or passages of the source.

The source of these data is patent US20120283316A1, “Delivery of Therapeutic Agents Using Oligonucleotide-Modified Nanoparticles As Carriers” (priority 2009, published 2012).

Data set [1] concerns MCF7 cells. The data set is described as follows: MTT assay (cytotoxicity) in MCF7 cells. The class given is cell-based. The note with it: Homo sapiens. On the procedure: (§1) MCF7, SKOV-3 and MES-SA/Dx5 cells were purchased from American Type Culture Collection (ATCC, Manassas, Va., USA). […] MCF7 cells were cultured in Eagle's Minimum Essential Medium (EMEM) supplemented with 10% fetal bovine serum (FBS) and 0.01 mg/ml bovine insulin. SKOV-3 and MES-SA/Dx5 cells were cultured using McCoy's 5A modified media supplemented with 10% FBS. All experiments were performed in the aforementioned cell-specific media in a 5% CO2 incubator at 37° C.
(§2) Following 24 hours of growth, media was replaced with 200 μL of corresponding sample solutions, which were freshly prepared at varying concentrations in complete cell culture media. Cells in media containing 10% FBS with nothing added were used as controls. After 12 hours or 48 hours of treatment, cells were rinsed and cultured with fresh medium containing 0.5 mg/mL of MTT for an additional 3 hours. Following careful aspiration of MTT solution and media after MTT incubation, 200 μL of MTT solubilization solution was added to each well and thoroughly mixed. The optical density at 570 nm was measured using a Safire microplate reader (Tecan Systems, Inc., San Jose, Calif.). Background absorbance at 690 nm was subtracted. Values were expressed as a percentage of the control (incubated with media alone). All conditions were done in sextuplicate in two independent experiments for each cell line.
(Formazan colour is commonly taken as a measure of viable cells.)

Data set [2] relates to SKOV-3 ovarian cancer cells. Briefly: MTT assay (cytotoxicity) in SKOV-3 cells. The note with it: Homo sapiens, SK-OV-3, paclitaxel-equivalent concentration. It counts as cell-based. On the procedure: MCF7, SKOV-3 and MES-SA/Dx5 cells were purchased from American Type Culture Collection (ATCC, Manassas, Va., USA). Media, Dulbecco's phosphate buffered saline (DPBS), and 0.25% trypsin/EDTA were purchased from Invitrogen (Carlsbad, Calif., USA). MCF7 cells were cultured in Eagle's Minimum Essential Medium (EMEM) supplemented with 10% fetal bovine serum (FBS) and 0.01 mg/ml bovine insulin. SKOV-3 and MES-SA/Dx5 cells were cultured using McCoy's 5A modified media supplemented with 10% FBS. All experiments were performed in the aforementioned cell-specific media in a 5% CO2 incubator at 37° C.
as §2, with “Briefly, cells were seeded on 96-well plates for 24 hours before the assay at a density of 1.5×10^4 cells/well. Following” for “Following”, “Following careful aspiration of MTT solution and media after MTT incubation, 200 μL of MTT solubilization solution was added to each well and thoroughly mixed.” left out, “All conditions were done in sextuplicate in two independent experiments for each cell line.” left out

Data set [3] concerns MES-SA/Dx5 cells. Briefly: MTT assay (cytotoxicity) in paclitaxel-resistant MES-SA/Dx5 cells. The class given is cell-based, human. On the procedure: as §1, §2
The subject of data set [4] is MES-SA/Dx5 cells. Briefly: Fluorescent TUNEL assay (apoptosis) in MES-SA/Dx5 cells. Particulars: MES-SA/Dx5, 48 hours, 100 nM paclitaxel or DNA strand. The class given is cell-based, human.
Procedure: MCF7 and MES-SA/Dx5 cells were seeded on 0.17 mm thick coverslips in 12-well plates at a density of 2×10^5 cells/well for 24 hours prior to fluorescent TUNEL assay. Cells were treated with nothing, DNA-AuNPs at a DNA strand concentration of 100 nM (negative controls), 100 nM of free paclitaxel and compound 1 (positive controls), PTX-DNA-AuNPs at the equivalent paclitaxel concentrations of 50 nM and 100 nM (samples), respectively, for 48 hours. Live cells were rinsed and stained in accordance with instructions and materials for adherent cultured cells provided by Chemicon International ApopTag Plus Fluorescein In situ Apoptosis Detection Kit S7111 (Temecula, Calif.). ApopTag utilizes the terminal deoxynucleotidyl transferase (TdT) enzyme to amplify the fluorescein-conjugated anti-digoxigenin antibody, a secondary antibody towards digoxigenin-labeled nucleotide-labeled 30-OH termini on DNA fragments. Images were acquired on a Zeiss LSM 510 inverted microscope (computer controlled using Zeiss Zen software).
MCF7 or MES-SA/Dx5 cells were incubated with drug-free DNA-AuNPs, free paclitaxel, compound 1 and PTX-DNA@AuNPs, respectively, at varying concentrations for 48 hours.
Data set [5] can be described thus: Dynamic light scattering (DLS) hydrodynamic size and dispersion in PBS. The class given is physicochemical. Particulars: 25 μM paclitaxel in PBS, DLS and TEM. On the procedure: PTX-DNA-AuNPs or DNA-AuNPs were resuspended in 200 uL PBS buffer with oligonucleotide strands of an equivalent concentration of 25 μM. Hydrodynamic size measurements were conducted using the Zetasizer Nano ZS (Malvern, Worcestershire, U.K.). The size measurements were performed at 25° C. at a 173° scattering angle in disposable micro cuvettes (minimum volume 40 μL, Malvern, Worcestershire, U.K.). The mean hydrodynamic diameter was determined by cumulative analysis. Transmission Electron Microscopy (TEM) was performed using a 200 kV Hitachi H-8100 TEM (EPIC, Northwestern University). Diluted PTX-DNA-AuNPs in deionized water were pipetted onto a commercial carbon TEM grid (Ted Pella Inc., Redding, Calif.). Upon air drying for 2 hours, samples were then observed within a Hitachi H-8100 TEM.

With `CC(=O)O[C@H]1C(=O)[C@@]2(C)[C@H]([C@H](OC(=O)c3ccccc3)[C@]3(O)C[C@H](OC(=O)[C@H](O)[C@@H](NC(=O)c4ccccc4)c4ccccc4)C(C)=C1C3(C)C)[C@]1(OC(C)=O)CO[C@@H]1C[C@@H]2O` [paclitaxel], the IC50 (usually the concentration needed to halve the response being measured) in data set [1] (MCF7, 12 h incubation, paclitaxel-equivalent concentration, read-out: IC50 (nM Paclitaxel)) was over 1000 nM; in data set [1] (MCF7, 12 hour incubation, read-out: IC50 value) it was over 1000 nM; in data set [1] (MCF7, 48 h incubation, paclitaxel-equivalent concentration, read-out: IC50 (nM Paclitaxel)), 193 nM; in data set [2] (SKOV-3, 12 h incubation) it was 176 nM; in data set [2] (SKOV-3, 48 h incubation), 28.9 nM; in data set [3] (Homo sapiens, MES-SA/Dx5, 12 h incubation, paclitaxel-equivalent concentration, read-out: IC50 (nM Paclitaxel)) it was over 1000 nM. Also, the IC50 in data set [3] (Homo sapiens, MES-SA/Dx5, 48 h incubation, paclitaxel-equivalent concentration, read-out: IC50 (nM Paclitaxel)) is over 1000 nM; in data set [3] (Homo sapiens, resistant MES-SA/Dx5 cells, 12 hours and 48 hours, read-out: IC50 values) it was over 1000 nM. Further, the viability (in general, the share of living cells, or the viability signal relative to a control) at 0.2 µM in data set [3] (Homo sapiens, 48 h, MES-SA/Dx5, 2 days incubation, 200 nM drug concentration, % of control, read-out: cell viability) turned out to be 76%. Further, the therapeutic activity entry in data set [3] (paclitaxel-resistant MES-SA/Dx5, 200 nM, 2 days) was “did not display any significant therapeutic activity”. Also, in data set [4], the “TUNEL staining (apoptosis)” value was “lower fraction of TUNEL-positive signals”. Besides, the “dispersion in PBS” value in data set [5] is reported as “severe aggregation”.
